Assay results from patent US11479551B2, “MTA-cooperative PRMT5 inhibitors” (Mirati Therapeutics, Inc., priority 2019, dated 2022).

Columns and labels:
PRMT5/MEP50 complex [1] = target: T1, PRMT5/MEP50 complex (Homo sapiens (Human), UniProt O14744); assay: PRMT5:MEP50 FlashPlate Assay (histone H4 peptide substrate, plus and minus MTA); assay type: biochemical
Description: The PRMT5 inhibitory activity of compounds of the present invention was determined using either a PRMT5:MEP50 FlashPlate Assay (Reaction Biology Corporation) or a PRMT5:MEP50 HotSpot Assay (Reaction Biology Corporation).
1. PRMT5:MEP50 FlashPlate Assay

HCT116 parental cells = assay: Proliferation assay (CellTiter-Glo, 10 days of treatment), HCT116 parental; assay type: cell-based; details: Homo sapiens, HCT-116, 240 h
Method in brief: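 250 cells seeded in McCoy's 5A with 10% FBS, then given a dose response of PRMT5 inhibitor at 37 °C, 5% CO2 for five days. Cells were split 1:10 on Day 6 into fresh medium with the same compound concentration for 5 more days. Viability read on Day 11 by CellTiter-Glo; IC50 after 10 days of treatment.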

[2] = tested on: PRMT5-dependent Symmetric Di-methyl Arginine signal in HCT116 parental cells; assay: SYM11 In-Cell Western, HCT116 parental; assay type: cell-based; details: Homo sapiens, HCT-116, 96 h, 4 days of treatment, SYM11/DRAQ5 ratio
Method in brief: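 HCT116 parental cells (2,000/well, McCoy's 5A with 10% FBS) dosed with PRMT5 inhibitors for four days at 37° C. Fixed in paraformaldehyde and methanol, then stained with SYM11 antibody and DRAQ5.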

PRMT5/MEP50 complex [3] = target: T1, PRMT5/MEP50 complex; assay: PRMT5:MEP50 HotSpot Assay (full-length histone H2A substrate, plus and minus MTA); assay type: biochemical; details: IC50 + 2 μM MTA, in the presence of 2 μM MTA
Method in brief: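 Tritium incorporated into recombinant full-length histone H2A was counted by scintillation after stopped reactions were captured on filter paper.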

[4] = tested on: PRMT5-dependent Symmetric Di-methyl Arginine signal in HCT116 homozygous MTAP knockout cells; assay: SYM11 In-Cell Western, HCT116 MTAP knockout; assay type: cell-based; details: Homo sapiens, HCT-116, 96 h, HCT116 homozygous MTAP knockout cells, 4 days of treatment, SYM11/DRAQ5 ratio; read-out: In-cell-Western (SYM11) HCT116 MTAP_KO IC50
[5] = tested on: HCT116 homozygous MTAP knockout cells; assay: Proliferation assay (CellTiter-Glo, 10 days of treatment), HCT116 MTAP knockout; assay type: cell-based; details: Homo sapiens, HCT-116, 240 h, read-out: Proliferation HCT116MTAP_KO IC50
Method in brief: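 Viability of the CRISPR/Cas9 homozygous MTAP-knockout HCT116 line was read by CellTiter-Glo after 10 days of PRMT5 inhibitor exposure, with IC50 derived from the dose response. Compound was given the day after seeding and renewed at an identical concentration when cells were split 1:10 on day 6.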

[6] = IC50 + 2 μM MTA (nM), in the presence of 2 μM MTA
[7] = in the absence of MTA, read-out: IC50

T1 sequence (O14744 2-637): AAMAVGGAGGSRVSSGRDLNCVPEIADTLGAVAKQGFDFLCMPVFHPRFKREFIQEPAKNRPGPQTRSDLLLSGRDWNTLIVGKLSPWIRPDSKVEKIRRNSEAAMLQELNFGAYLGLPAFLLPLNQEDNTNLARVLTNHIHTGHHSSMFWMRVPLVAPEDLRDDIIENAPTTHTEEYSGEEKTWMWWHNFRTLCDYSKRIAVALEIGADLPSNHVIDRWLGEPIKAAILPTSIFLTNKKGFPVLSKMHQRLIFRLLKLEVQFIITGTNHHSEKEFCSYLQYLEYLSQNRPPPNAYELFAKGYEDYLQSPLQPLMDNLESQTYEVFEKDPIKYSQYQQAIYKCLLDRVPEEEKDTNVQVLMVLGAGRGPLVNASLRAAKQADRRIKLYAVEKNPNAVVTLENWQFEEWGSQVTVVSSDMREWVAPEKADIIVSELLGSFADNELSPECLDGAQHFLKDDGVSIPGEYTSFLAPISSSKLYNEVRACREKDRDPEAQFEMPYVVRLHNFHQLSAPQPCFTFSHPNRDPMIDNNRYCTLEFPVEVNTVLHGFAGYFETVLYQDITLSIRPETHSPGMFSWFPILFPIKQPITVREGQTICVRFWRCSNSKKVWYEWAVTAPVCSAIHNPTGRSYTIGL
T1 sequence (Q9BQA1 2-342 partner): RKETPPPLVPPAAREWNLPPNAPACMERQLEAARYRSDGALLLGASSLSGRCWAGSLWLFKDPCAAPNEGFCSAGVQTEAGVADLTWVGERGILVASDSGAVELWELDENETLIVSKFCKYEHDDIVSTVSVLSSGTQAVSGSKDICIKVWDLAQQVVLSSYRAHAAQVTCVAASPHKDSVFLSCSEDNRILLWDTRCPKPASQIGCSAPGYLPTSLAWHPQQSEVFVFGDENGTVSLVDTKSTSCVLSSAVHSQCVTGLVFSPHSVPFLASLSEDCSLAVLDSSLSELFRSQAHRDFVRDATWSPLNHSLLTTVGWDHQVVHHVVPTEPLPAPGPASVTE

| SMILES | IC50 (PRMT5/MEP50 complex [1]; [6]) [nM] | IC50 (PRMT5/MEP50 complex [1]; [7]) [nM] | IC50 (PRMT5/MEP50 complex [3]) [µM] | IC50 [4] [µM] | IC50 [5] [µM] | IC50 (HCT116 parental cells) [µM] | IC50 [2] [µM] |
| --- | --- | --- | --- | --- | --- | --- | --- |
| Cc1cccc(-c2c(-c3ccc4c(=O)[nH]nc(CN)c4c3)cnn2C)c1 [Example 4-94, 4-(aminomethyl)-6-(1-methyl-5-(m-tolyl)-1H-pyrazol-4-yl)phthalazin-1(2H)-one] | 2.2 | 83 | 0.737 | 1.18 | 1.84 | 4.88 | 10 |
| Cn1ncc(-c2ccc3c(=O)[nH]nc(CN)c3c2)c1-c1ccccc1C#N [Example 4-100, 2-(4-(4-(aminomethyl)-1-oxo-1,2-dihydrophthalazin-6-yl)-1-methyl-1H-pyrazol-5-yl)benzonitrile] | 0.5 | 80 | 1.51 | 0.505 | 5.23 | 10 | 10 |
| CCOc1ccn2ncc(-c3ccc4c(=O)[nH]nc(CN)c4c3)c2c1 [Example 4-158, 4-(aminomethyl)-6-(5-ethoxypyrazolo[1,5-a]pyridin-3-yl)phthalazin-1(2H)-one] | 2.8 | 113 | 1.46 | > 10 | 2.2 | 1.74 | > 10 |
| CN(c1ccccc1)c1cncc(-c2ccc3c(=O)[nH]nc(CN)c3c2)c1 [Example 4-159, 4-(aminomethyl)-6-(5-(methyl(phenyl)amino)pyridin-3-yl)phthalazin-1(2H)-one] | 4 | 68.4 | 0.393 | > 10 | 8.25 | > 10 | > 10 |

Further lines, with some results ahead:

| IC50 (PRMT5/MEP50 complex [1]; [6]) [nM] | IC50 (PRMT5/MEP50 complex [1]; [7]) [nM] | IC50 (PRMT5/MEP50 complex [3]) [µM] | IC50 [4] [µM] | IC50 [5] [µM] | SMILES | IC50 (HCT116 parental cells) [µM] | IC50 [2] [µM] |
| --- | --- | --- | --- | --- | --- | --- | --- |
| – | – | 0.218 | 0.095 | 1.41 | Cc1c(-c2cnn(C)c2)ccc(-c2c(-c3ccc4c(=O)[nH]nc(CN)c4c3)cnn2C)c1C#N [Example 12-13, 6-(4-(4-(aminomethyl)-1-oxo-1,2-dihydrophthalazin-6-yl)-1-methyl-1H-pyrazol-5-yl)-2-methyl-3-(1-methyl-1H-pyrazol-4-yl)benzonitrile] | 2 | > 1 |
| – | – | 0.182 | 0.015 | 0.226 | Cc1cc(C2CC2)cc(-c2c(-c3ccc4c(=O)[nH]nc(CN)c4c3)cnn2C)c1C#N [Example 12-14, 2-[4-[4-(aminomethyl)-1-oxo-2H-phthalazin-6-yl]-2-methyl-pyrazol-3-yl]-4-cyclopropyl-6-methyl-benzonitrile] | > 10 | 1.81 |
